# From patent US9695155B2, “Herbicidal substituted pyrimidinyloxy benzene compounds” (E. I. DU PONT DE NEMOURS AND COMPANY, priority 2013, dated 2017)
# Experiments:
# [1] = tested on: sedge, umbrella; assay: Test B flooded paddy test; type: in vivo, Cyperus difformis; details: Flood, 250 g ai/ha; 0 to 100 scale where 0 is no effect and 100 is complete control
# Experimental: (§1) Plant species in the flooded paddy test selected from rice (Oryza sativa), sedge, umbrella (small-flower umbrella sedge, Cyperus difformis), (Heteranthera limosa), and barnyardgrass (Echinochloa crus-galli) were grown to the 2-leaf stage for testing. At time of treatment, test pots were flooded to 3 cm above the soil surface, treated by application of test compounds directly to the paddy water, and then maintained at that water depth for the duration of the test. Treated plants and controls were maintained in a greenhouse for 13 to 15 days, after which time all species were compared to controls and visually evaluated. Plant response ratings, summarized in Table B, are based on a scale of 0 to 100 where 0 is no effect and 100 is complete control. A dash (-) response means no test result.
# [2] = tested on: wheat; assay: Test A preemergence; type: in vivo, Triticum aestivum; details: for Plant response rating, Wheat: 125 g ai/ha, 0 to 100 scale where 0 is no effect and 100 is complete control
# From the text: (§2) Seeds of plant species selected from barnyardgrass (Echinochloa crus-galli), kochia (Kochia scoparia), ragweed (common ragweed, Ambrosia elatior), Italian ryegrass (Lolium multiflorum), large (Lg) crabgrass (Digitaria sanguinalis), giant foxtail (Setaria faberii), morningglory (Ipomoea spp.), pigweed (Amaranthus retroflexus), velvetleaf (Abutilon theophrasti), wheat (Triticum aestivum), and corn (Zea mays) were planted into a blend of loam soil and sand and treated preemergence with a directed soil spray using test chemicals formulated in a non-phytotoxic solvent mixture which included a surfactant.
# (§3) At the same time, plants selected from these crop and weed species and also blackgrass (Alopecurus myosuroides), and galium (catchweed bedstraw, Galium aparine) were planted in pots containing the same blend of loam soil and sand and treated with postemergence applications of test chemicals formulated in the same manner. Plants ranged in height from 2 to 10 cm and were in the one- to two-leaf stage for the postemergence treatment. Treated plants and untreated controls were maintained in a greenhouse for approximately 10 days, after which time all treated plants were compared to untreated controls and visually evaluated for injury. Plant response ratings, summarized in Table A, are based on a 0 to 100 scale where 0 is no effect and 100 is complete control. A dash (-) response means no test result.
# [3] = tested on: morningglory; assay: Test A preemergence; type: in vivo, Ipomoea spp.; details: for Plant response rating, Morningglory: 125 g ai/ha, 0 to 100 scale where 0 is no effect and 100 is complete control; for Morningglory plant response rating: 500 g ai/ha, 0 to 100 scale, 0 no effect, 100 complete control, approx. 10 days
# From the text: as §2, §3
# [4] = tested on: rice; assay: Test B flooded paddy test; type: in vivo, Oryza sativa; details: Flood, 250 g ai/ha; 0 to 100 scale where 0 is no effect and 100 is complete control
# Outline: (§4)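 Compound added straight to paddy water, with pots kept flooded 3 cm above soil, on plants grown to the 2-leaf stage. Visual scoring 0-100 (100 = complete control) against untreated controls after 13 to 15 greenhouse days.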
# [5] = tested on: wheat; assay: Test A postemergence; type: in vivo, Triticum aestivum
# Outline: (§5)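 Greenhouse pot test, loam/sand soil. Formulation: non-phytotoxic solvent mix plus surfactant. Pre: directed spray onto soil after sowing. Post: plants at 1–2 leaf, 2–10 cm. Rated visually vs untreated controls at ~10 d, 0 (no effect) to 100 (complete control).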
# [6] = tested on: barnyardgrass; assay: Test A preemergence; type: in vivo, Echinochloa crus-galli; details: for Plant response rating, Barnyardgrass: 125 g ai/ha, 0 to 100 scale where 0 is no effect and 100 is complete control; for Barnyardgrass plant response rating: 500 g ai/ha, 0 to 100 scale, 0 no effect, 100 complete control, approx. 10 days
# Outline: as §5
# [7] = tested on: large (Lg) crabgrass; assay: Test A preemergence; type: in vivo, Digitaria sanguinalis; details: for Plant response rating, Crabgrass, Large: 125 g ai/ha, 0 to 100 scale where 0 is no effect and 100 is complete control; for Crabgrass, Large plant response rating: 500 g ai/ha, 0 to 100 scale, 0 no effect, 100 complete control, approx. 10 days
# Outline: as §5
# [8] = tested on: morningglory; assay: Test A postemergence; type: in vivo, Ipomoea spp.
# Outline: as §5
# [9] = tested on: large (Lg) crabgrass; assay: Test A postemergence; type: in vivo, Digitaria sanguinalis
# From the text: as §2, §3
# [10] = tested on: pigweed; assay: Test A postemergence; type: in vivo, Amaranthus retroflexus
# Outline: as §5
# [11] = tested on: velvetleaf; assay: Test A postemergence; type: in vivo, Abutilon theophrasti
# From the text: as §2, §3
# [12] = tested on: giant foxtail; assay: Test A preemergence; type: in vivo, Setaria faberii; details: for Plant response rating, Foxtail, Giant: 125 g ai/ha, 0 to 100 scale where 0 is no effect and 100 is complete control; for Foxtail, Giant plant response rating: 500 g ai/ha, 0 to 100 scale, 0 no effect, 100 complete control, approx. 10 days
# From the text: as §2, §3
# [13] = tested on: barnyardgrass; assay: Test A postemergence; type: in vivo, Echinochloa crus-galli
# From the text: as §2, §3
# [14] = tested on: pigweed; assay: Test A preemergence; type: in vivo, Amaranthus retroflexus; details: for Plant response rating, Pigweed: 125 g ai/ha, 0 to 100 scale where 0 is no effect and 100 is complete control; for Pigweed plant response rating: 500 g ai/ha, 0 to 100 scale, 0 no effect, 100 complete control, approx. 10 days
# From the text: as §2, §3
# [15] = tested on: corn; assay: Test A postemergence; type: in vivo, Zea mays
# Outline: as §5
# [16] = tested on: corn; assay: Test A preemergence; type: in vivo, Zea mays; details: for Plant response rating, Corn: 125 g ai/ha, 0 to 100 scale where 0 is no effect and 100 is complete control; for Corn plant response rating: 500 g ai/ha, 0 to 100 scale, 0 no effect, 100 complete control, approx. 10 days
# Outline: as §5
# [17] = tested on: velvetleaf; assay: Test A preemergence; type: in vivo, Abutilon theophrasti; details: for Plant response rating, Velvetleaf: 125 g ai/ha, 0 to 100 scale where 0 is no effect and 100 is complete control
# From the text: as §2, §3
# [18] = tested on: barnyardgrass; assay: Test B flooded paddy test; type: in vivo, Echinochloa crus-galli; details: Flood, 250 g ai/ha; 0 to 100 scale where 0 is no effect and 100 is complete control
# Experimental: as §1
# [19] = tested on: giant foxtail; assay: Test A postemergence; type: in vivo, Setaria faberii
# From the text: as §2, §3
# [20] = tested on: Heteranthera limosa; assay: Test B flooded paddy test; type: in vivo; details: Flood, 250 g ai/ha; 0 to 100 scale where 0 is no effect and 100 is complete control
# Outline: as §4
# [21] = 500 g ai/ha, 0 to 100 scale, 0 no effect, 100 complete control, approx. 10 days
# [22] = 125 g ai/ha, 0 to 100 scale where 0 is no effect and 100 is complete control
# [23] = 500 g ai/ha, 0 to 100 scale, 0 no effect, 100 complete control
# [24] = 500 g ai/ha, 0 to 100 scale where 0 is no effect and 100 is complete control
SMILES,"Plant response rating, Sedge, Umbrella [1]","Plant response rating, Wheat [2]","Plant response rating, Morningglory [3]",Morningglory plant response rating [3],"Plant response rating, Rice [4]","Plant response rating, Wheat [5, 22]","Plant response rating, Barnyardgrass [6]",Barnyardgrass plant response rating [6],"Plant response rating, Crabgrass, Large [7]","Crabgrass, Large plant response rating [7]","Plant response rating, Morningglory [8, 22]","Plant response rating, Crabgrass, Large [9, 22]","Plant response rating, Pigweed [10, 22]","Plant response rating, Velvetleaf [11, 22]","Plant response rating, Foxtail, Giant [12]","Foxtail, Giant plant response rating [12]","Plant response rating, Barnyardgrass [13, 22]","Plant response rating, Pigweed [14]",Pigweed plant response rating [14],"Plant response rating, Corn [15, 22]",also measured
COc1ccc(Oc2ncc(Br)cn2)c(-n2cc(Br)cn2)c1 [Compound 43],0,0,0,0,0,0,0,10,10,50,30,10,30,60,10,20,0,0,20,0,"Wheat plant response rating [2, 21]: 0; Plant response rating, Wheat [5, 23]: 0; Plant response rating, Morningglory [8, 23]: 50; Plant response rating, Crabgrass, Large [9, 23]: 20; Plant response rating, Pigweed [10, 23]: 40; Plant response rating, Velvetleaf [11, 23]: 100; Plant response rating, Barnyardgrass [13, 23]: 10; Plant response rating, Corn [15, 23]: 10; Plant response rating, Corn [16]: 0; Corn plant response rating [16]: 0; Plant response rating, Velvetleaf [17]: 30; Velvetleaf plant response rating [17, 21]: 50; Plant response rating, Barnyardgrass [18]: 0; Plant response rating, Foxtail, Giant [19, 22]: 0; Plant response rating, Foxtail, Giant [19, 23]: 40; Plant response rating, Ducksalad [20]: 75"
Cc1cnn(-c2c(C#N)cccc2Oc2ncc(Cl)cn2)c1 [Compound 95],50,0,50,100,0,0,50,100,100,100,60,40,100,70,100,100,50,90,100,10,"Plant response rating, Wheat [5, 24]: 40; Plant response rating, Morningglory [8, 24]: 90; Plant response rating, Crabgrass, Large [9, 24]: 90; Plant response rating, Pigweed [10, 24]: 100; Plant response rating, Velvetleaf [11, 24]: 100; Plant response rating, Barnyardgrass [13, 24]: 80; Plant response rating, Corn [15, 24]: 70; Plant response rating, Corn [16]: 0; Corn plant response rating [16]: 40; Plant response rating, Velvetleaf [17]: 90; Plant response rating, Barnyardgrass [18]: 0; Plant response rating, Foxtail, Giant [19, 22]: 40; Plant response rating, Foxtail, Giant [19, 24]: 80; Plant response rating, Ducksalad [20]: 40"
